Columns and labels:
GZ-Hi tumor cells = assay: Tumor take after i.v. MUC-1 mucin and subcutaneous tumor challenge; assay type: in vivo; conditions: CB6 mice, MUC-1 mucin 20 micrograms i.v. on days -2, +2, +6; 1x10^6 GZ-Hi cells s.c.; observed 8 weeks
Method: The procedures employed in this example are similar to those described in Fung, et al. Cancer Research 51:1170-1176 (1991), which is hereby incorporated by reference. However, in the present example, the human MUC-1 system was used instead of the epiglycanin system.
CB6 mice were injected intravenously with MAb B27.29 affinity purified MUC-1 mucin (20 micrograms each treatment or approximately 400 units) prior to (day-2) and after (days +2 and +6) an attempted tumor challenge. Affinity purified mucin had been prepared by affinity adsorption on a B 27.29 CnBr-Sepharose matrix from a pleural effusion fluid obtained from a patient with adenocarcinoma of the ovaries. MUC-1 mucin treated and control mice were challenged with 1×10^6 GZ-Hi tumor cells injected into the subcutaneous space along the flank. Mice were observed by palpation and visual inspection at the injection site for the occurrence of tumors over a period of 8 weeks.

human T-cell cultures = assay: Mixed lymphocyte reaction (allo-antigenic T-cell proliferation); assay type: cell-based; conditions: B27.29 affinity purified MUC-1 mucin, various doses, in vitro
Method: The mixed lymphocyte reaction is conducted by mixing the lymphocytes of HLA disparate individuals in in vitro tissue cultures. The “responder population” in this experiment is purified T-cells from one population, while the “stimulator” population in this experiment is the adherent antigen presenting cells obtained from an HLA mismatched individual donor. The two cell populations were mixed and cultured either in the presence or absence of various doses of B27.29 affinity purified MUC-1 mucin that was purified from a pleural effusion fluid.

[1] = target: T1, recombinant human ICAM-1-Ig fusion protein (Homo sapiens, UniProt P05362); assay: Tumor cell-immobilized ICAM-1 adhesion assay; assay type: cell-based; conditions: antibodies 10 or 20 ug/mL, soluble MUC-1 10 ug/mL
T1 construct: coated with 50 uL of a solution with 20 ug/mL recombinant soluble ICAM-1 in PBS; Ig (immunoglobulin) fusion partner
Method: 96 well tissue culture plates were coated with 50 uL of a solution with 20 ug/mL recombinant soluble ICAM-1 in PBS for 1 hr at room temperature. Wells were then blocked with 1% BSA for 2 hr at 37 C. and washed four times with PBS. Antibodies (10 ug/mL) (anti-ICAM-1 164B, 18E3D, 84H10, anti-E selectin 1.2B6) and soluble MUC-1 (10 ug/mL) were added to the wells for 90 min. at room temperature. Wells were then washed again before addition of cells. BCECF labeled tumor cells were pretreated +/− 20 ug/mL of anti-MUC-1 (B27.29, or DF3P) and were then added to the appropriate wells for 40 min. at 37 C. Wells were then washed and percent adhesion was then determined as described in the tumor cell—endothelial cell adhesion assay.
To exclude the possibility that adhesion was being mediated by endothelial molecules other than ICAM-1, the adhesion of the MUC-1 transfectants was studied using immobilized recombinant human ICAM-1-Ig fusion protein. Adhesion was compared to Bovine Serum Albumin and Collagen type I as controls.

Purified T cells = assay: T cell proliferation assay (allo MLR, 3H-thymidine incorporation); assay type: cell-based, human; conditions: 10 ug/ml, allo PBL stimulated T cells
Method: Enriched T cell populations were purified from buffy coats obtained from normal red cross donors using nylon wool columns by previously reported procedures. […] For the allo MLR, mitomycin C treated allogeneic PBLs were cocultured with purified T cells in the presence or absence of affinity purified MUC-1 mucin or control OSM. In most of the experiments, the T cells were cultured 6-7 days in AIM V medium in the absence or presence of MUC-1, MUC-1 derivative or OSM at the indicated concentration. After this time, the T cells were harvested, washed and cultured as indicated.
Purified T cells (10^6/ml) were cultured in AIM V medium with allo PBLs in the absence or presence of MUC-1, MUC-1 derivative or OSM 10 ug/ml for 6-7 days. T cells were harvested and plated in 96 well flat bottom plates at 10^5/well with allo PBLs (10^5/well), in the presence or absence of affinity purified MUC-1, MUC-1 derivative or OSM. Control cultures were treated with either 50 U/ml IL-2 or 1 ug/ml anti-CD28 Mab. After 4 days of culture, ^3H-thymidine (1 uCi/well) was added. The cells were harvested on the fifth day and ^3H-thymidine incorporation was measured by liquid scintillation.
Synthetic peptides, as described in Example 8, corresponding to 3, 4, 5 or 6 MUC-1 repeats, were added at 10 ug/ml to allo cultures and T cell proliferation was measured at 14 days from the start of culture. […]

T1 sequence (P05362 28-480 limits assumed): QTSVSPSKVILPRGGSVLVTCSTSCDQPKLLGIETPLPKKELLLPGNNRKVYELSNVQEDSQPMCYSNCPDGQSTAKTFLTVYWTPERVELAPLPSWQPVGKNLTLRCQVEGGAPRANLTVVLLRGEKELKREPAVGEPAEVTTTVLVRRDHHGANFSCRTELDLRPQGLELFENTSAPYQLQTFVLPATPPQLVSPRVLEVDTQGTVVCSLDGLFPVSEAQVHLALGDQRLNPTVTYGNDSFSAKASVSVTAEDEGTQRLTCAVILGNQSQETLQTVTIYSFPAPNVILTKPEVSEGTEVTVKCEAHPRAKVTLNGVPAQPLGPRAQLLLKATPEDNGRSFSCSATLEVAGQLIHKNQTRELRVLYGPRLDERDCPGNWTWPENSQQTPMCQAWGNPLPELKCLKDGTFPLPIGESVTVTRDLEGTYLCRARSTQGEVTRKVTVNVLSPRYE

inhibition of GZHi adhesion to immobilized ICAM-1 [1]: equally effective at blocking adhesion
Substance: MUC-1: MAb B27.29 affinity purified human MUC-1 mucin from pleural effusion or ascites fluid of cancer patients
% Tumor Take (GZ-Hi tumor cells): 100%
inhibition of T-cell proliferation against a strong allo-antigenic stimulus (human T-cell cultures): strongly inhibits
reduction of T cell proliferation relative to control (Purified T cells): inhibition of T cell proliferation

Source: patent publication US20020044943A1, “MUC-1 as an immunosuppressive therapeutic agent for the treatment of inflammatory and autoimmune conditions” (priority 1997, published 2002)
